pIC50: −log10 of the molar value. Like-named read-outs stand apart in the source and are kept apart here.
Tests used:
[1] = test system: Abeta 40 in cerebrospinal fluid (CSF) and brain; assay: In vivo inhibition of beta-secretase (Abeta 40 reduction in CSF and brain); details: rat, after 4 hrs; for inhibition in vivo at 3 mg/kg: Abeta 40, 3 mpk; for inhibition in vivo at 10 mg/kg: Abeta 40, 10 mg/kg (10 mpk)
Text: In Vivo Inhibition of Beta-Secretase
Several animal models, including mouse, rat, dog, and monkey, may be used to screen for inhibition of beta-secretase activity in vivo following administration of a test compound sample. Animals used in this invention can be wild type, transgenic, or gene knockout animals. […] A separate group of animals receive 2% hydroxypropyl methylcellulose, 1% Tween80 alone, containing no test compound, and serve as a vehicle-control group. At the end of the test period, animals are sacrificed and brain tissues, plasma or cerebrospinal fluid are collected. […] Homogenates are centrifuged at 355,000 g, 4° C. for 30 minutes. CSF or brain supernatants are then analyzed for the presence of A-beta peptide by specific sandwich ELISA assays based on ECL (Electrochemiluminescence) technology. For example, rat Abeta40 is measured using biotinylated-4G8 (Signet) as a capture antibody and Fab40 (an in-house antibody specific to the C-terminal of Abeta40) as a detection antibody.
Actual vehicles used: Oral: 2% HPMC, 1% Tween80, pH 2.2

[2] = target: Beta Secretase enzyme (BACE) (Homo sapiens, UniProt P56817); assay: In vitro enzymatic BACE FRET (fluorescence resonance energy transfer) assay; assay type: biochemical; details: average IC50, enzyme assay; read-out: BACE 1 FRET assay
Chain of Beta Secretase enzyme (BACE) (P56817 46-501, species assumed): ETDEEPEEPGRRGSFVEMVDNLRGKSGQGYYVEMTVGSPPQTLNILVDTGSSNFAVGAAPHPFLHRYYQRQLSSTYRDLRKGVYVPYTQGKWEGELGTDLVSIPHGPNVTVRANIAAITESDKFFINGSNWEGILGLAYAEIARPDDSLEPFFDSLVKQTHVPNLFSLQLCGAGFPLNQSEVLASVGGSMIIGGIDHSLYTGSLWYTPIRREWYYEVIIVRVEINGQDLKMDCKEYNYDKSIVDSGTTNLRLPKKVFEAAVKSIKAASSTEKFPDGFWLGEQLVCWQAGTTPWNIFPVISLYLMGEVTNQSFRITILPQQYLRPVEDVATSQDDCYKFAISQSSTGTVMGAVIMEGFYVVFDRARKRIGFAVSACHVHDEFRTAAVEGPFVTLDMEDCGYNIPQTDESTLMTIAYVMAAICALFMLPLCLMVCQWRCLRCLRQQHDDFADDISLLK
Procedure, shortened: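 Acetate buffer (0.05 M, pH 4.2), 10% DMSO final, 100 uM nonionic detergent genapol. Substrate addition (50 nM FRET peptide) initiates; one-hour incubation; Tris raises pH to neutrality before fluorescence measurement.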

[3] = test system: Aβ40 in conditioned medium of cells stably expressing Amyloid Precursor Protein (APP); assay: In vitro BACE cell-based assay (Aβ40 in conditioned medium, sandwich ELISA); details: read-out: HEK cell assay
Procedure, shortened: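 Conditioned medium from stably APP-expressing cells treated with compound dose series is assayed for Aβ40 by sandwich ELISA with time-resolved fluorescence detection. IC50 is calculated from percent inhibition of Aβ40 against compound concentration.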

[4] = CSF, read-out: CSF A-beta reduction % at 3 mpk
[5] = brain, read-out: Brain A-beta reduction % at 3 mpk
[6] = Homo sapiens, HEK293, average IC50
[7] = CSF, read-out: CSF A-beta reduction % at 10 mg/kg
[8] = brain, read-out: Brain A-beta reduction % at 10 mg/kg
[9] = Homo sapiens, HEK293, average IC50, HEK cells

| pIC50 [2] | pIC50 [3, 6] | pIC50 [3, 9] | SMILES | inhibition in vivo at 10 mg/kg [1, 7] | inhibition in vivo at 10 mg/kg [1, 8] | also measured |
| --- | --- | --- | --- | --- | --- | --- |
| 6.97 | 6.25 |  | CC1(C)C=C(c2cc3c(c(F)n2)Oc2ccc(-c4cccnc4F)cc2[C@@]32CSC(N)=N2)CCO1 [Example 1033, (S)-3-(6,6-dimethyl-3,6-dihydro-2H-pyran-4-yl)-1-fluoro-7-(2-fluoropyridin-3-yl)-5′H-spiro[chromeno[2,3-c]pyridine-5,4′-thiazol]-2′-amine] |  |  | inhibition in vivo at 3 mg/kg [1, 4]: 60%; inhibition in vivo at 3 mg/kg [1, 5]: 52% |
| 8.68 | 7.31 |  | Cc1cc(-c2cc3c(c(F)n2)Oc2ccc(-c4cccnc4F)cc2[C@@]32CSC(N)=N2)ccn1 [Example 1037, (S)-1-fluoro-7-(2-fluoropyridin-3-yl)-3-(2-methylpyridin-4-yl)-5′H-spiro[chromeno[2,3-c]pyridine-5,4′-thiazol]-2′-amine] | 67% | 58% |  |
| 9.52 |  | 8.00 | NC1=N[C@@]2(CO1)c1cc(-c3cncc(F)c3)ccc1Oc1c2cc(N2CCC(F)(F)CC2)nc1F [Example 927, (S)-3-(4,4-difluoropiperidin-1-yl)-1-fluoro-7-(5-fluoropyridin-3-yl)-5′-H-spiro[chromeno[2,3-c]pyridine-5,4′-oxazol]-2′-amine] | 70% | 65% |  |
|  |  | 8.30 | NC1=N[C@@]2(CO1)c1cc(-c3cccnc3F)ccc1Oc1c2cc(C2=CCCOC2)nc1F [Example 688, (5S)-3-(5,6-dihydro-2H-pyran-3-yl)-1-fluoro-7-(2-fluoro-3-pyridinyl)spiro[chromeno[2,3-c]pyridine-5,4′-[1,3]oxazol]-2′-amine] |  |  | inhibition in vivo at 3 mg/kg [1, 4]: 74%; inhibition in vivo at 3 mg/kg [1, 5]: 75% |
| 9.40 |  | 9.00 | CC#Cc1cncc(-c2ccc3c(c2)[C@@]2(COC(N)=N2)c2cc(C4=CCOCC4)cnc2O3)c1 [Example 942, (S)-3-(3,6-dihydro-2H-pyran-4-yl)-7-(5-(prop-1-ynyl)pyridin-3-yl)-5′H-spiro[chromeno[2,3-b]pyridine-5,4′-oxazol]-2′-amine] |  |  | inhibition in vivo at 3 mg/kg [1, 4]: 57%; inhibition in vivo at 3 mg/kg [1, 5]: 42% |
| 8.96 | 8.09 |  | NC1=N[C@@]2(CO1)c1cc(-c3cccnc3F)ccc1Oc1c(F)cc(-c3ncccn3)cc12 [Example 128, (S)-4′-fluoro-7′-(2-fluoropyridin-3-yl)-2′-(pyrimidin-2-yl)-5H-spiro[oxazole-4,9′-xanthen]-2-amine] | 75% | 57% |  |
| 8.70 |  | 7.94 | NC1=N[C@@]2(CO1)c1cc(-c3cnccn3)ccc1Oc1c(F)cc(C3=CCOCC3)cc12 [Example 452, (S)-2′-(3,6-dihydro-2H-pyran-4-yl)-4′-fluoro-7′-(pyrazin-2-yl)-5H-spiro[oxazole-4,9′-xanthen]-2-amine] | 56% | 35% |  |
| 9.40 | 8.52 |  | CC#Cc1cncc(-c2ccc3c(c2)[C@@]2(COC(N)=N2)c2cc(-c4cccnc4)nc(F)c2O3)c1 [Example 759, (S)-1-fluoro-7-(5-(prop-1-ynyl)pyridin-3-yl)-3-(pyridin-3-yl)-5′H-spiro[chromeno[2,3-c]pyridine-5,4′-oxazol]-2′-amine] |  |  | inhibition in vivo at 3 mg/kg [1, 4]: 43%; inhibition in vivo at 3 mg/kg [1, 5]: 43% |
|  | 7.64 |  | NC1=N[C@@]2(CS1)c1cc(-c3cccnc3F)ccc1Oc1cnc(-c3ccnc(F)c3)cc12 [Example 1000, (S)-7-(2-fluoropyridin-3-yl)-3-(2-fluoropyridin-4-yl)-5′H-spiro[chromeno[2,3-c]pyridine-5,4′-thiazol]-2′-amine] |  |  | CSF A-beta reduction % at 30 mpk ([1]; CSF, Abeta 40, 30 mpk): 63% at 30 mpk; Brain A-beta reduction % at 30 mpk ([1]; brain, Abeta 40, 30 mpk): 60% at 30 mpk |

Continued, compound first:

| SMILES | pIC50 [2] | pIC50 [3, 6] | pIC50 [3, 9] | inhibition in vivo at 10 mg/kg [1, 7] | inhibition in vivo at 10 mg/kg [1, 8] | also measured |
| --- | --- | --- | --- | --- | --- | --- |
| CC#Cc1cncc(-c2ccc3c(c2)[C@@]2(COC(N)=N2)c2cc(-c4cnn(C)c4)cc(F)c2O3)c1 [Example 947, (S)-4′-fluoro-2′-(1-methyl-1H-pyrazol-4-yl)-7′-(5-(prop-1-ynyl)pyridin-3-yl)-5H-spiro[oxazole-4,9′-xanthen]-2-amine] | 9.40 |  | 8.40 |  |  | inhibition in vivo at 3 mg/kg [1, 4]: 22%; inhibition in vivo at 3 mg/kg [1, 5]: 25% |
| CC(C)(F)COc1cc(F)c2c(c1)[C@]1(CSC(N)=N1)c1cc(-c3cccnc3F)ccc1O2 [Example 1067, (S)-4′-fluoro-2′-(2-fluoro-2-methylpropoxy)-7′-(2-fluoropyridin-3-yl)-5H-spiro[thiazole-4,9′-xanthen]-2-amine] | 9.52 | 7.82 |  | 69% | 55% |  |
| NC1=N[C@@]2(CS1)c1cc(-c3cccnc3F)ccc1Oc1ncc(C3=CCCOC3)cc12 [Example 672, (5S)-3-(5,6-dihydro-2H-pyran-3-yl)-7-(2-fluoro-3-pyridinyl)spiro[chromeno[2,3-b]pyridine-5,4′-[1,3]thiazol]-2′-amine] | 9.15 |  | 8.00 | 64% | 47% |  |
| COc1nc(-c2ccnc(F)c2)cc2c1Oc1ccc(-c3cccnc3)cc1[C@@]21COC(N)=N1 [Example 839, (S)-3-(2-fluoropyridin-4-yl)-1-methoxy-7-(pyridin-3-yl)-5′H-spiro[chromeno[2,3-c]pyridine-5,4′-oxazol]-2′-amine] | 8.68 | 7.96 |  | 37% | 23% |  |
| NC1=N[C@@]2(CO1)c1cc(-c3cncc(F)c3)ccc1Oc1c2cc(N2CCOCC2)nc1F [Example 893, (5S)-1-fluoro-7-(5-fluoro-3-pyridinyl)-3-(4-morpholinyl)spiro[chromeno[2,3-c]pyridine-5,4′-[1,3]oxazol]-2′-amine] | 9.52 |  | 8.15 | 76% | 70% |  |
| NC1=N[C@@]2(CO1)c1cc(-c3cccnc3)ccc1Oc1cnc(N3CCC(F)(F)CC3)cc12 [Example 402, (5S)-3-(4,4-difluoro-1-piperidinyl)-7-(3-pyridinyl)spiro[chromeno[2,3-c]pyridine-5,4′-[1,3]oxazol]-2′-amine] | 8.62 |  | 7.88 | 52% | 28% |  |
| NC1=N[C@@]2(CS1)c1cc(-c3cccnc3F)ccc1Oc1cnc(N3CCOCC3)cc12 [Example 999, (S)-7-(2-fluoropyridin-3-yl)-3-morpholino-5′H-spiro[chromeno[2,3-c]pyridine-5,4′-thiazol]-2′-amine] | 9.30 | 7.85 |  |  |  | CSF A-beta reduction % at 5 mpk ([1]; CSF, Abeta 40, 5 mpk): 58% at 5 mpk; Brain A-beta reduction % at 5 mpk ([1]; brain, Abeta 40, 5 mpk): 40% at 5 mpk |
| CC(C)(C)C#Cc1cnc2c(c1)[C@]1(COC(N)=N1)c1cc(-c3cncnc3)c(F)cc1O2 [Example 339, (S)-3-(3,3-dimethylbut-1-yn-1-yl)-8-fluoro-7-(pyrimidin-5-yl)-5′H-spiro[chromeno[2,3-b]pyridine-5,4′-oxazol]-2′-amine] |  |  |  | 56% | 29% | pIC50 ([3]; average IC50): 7.84 |
| NC1=N[C@@]2(CO1)c1cc(-c3cncc(Cl)c3)ccc1Oc1c(F)cc(N3CCOCC3)cc12 [Example 208, (4S)-7′-(5-chloro-3-pyridinyl)-4′-fluoro-2′-(4-morpholinyl)spiro[1,3-oxazole-4,9′-xanthen]-2-amine] | 9.10 | 8.42 |  |  |  |  |

— patent US8883782B2, “Spiro-tetracyclic ring compounds as beta-secretase modulators and methods of use” (Amgen Inc., priority 2010, dated 2014)
